Data from the supplement of paper PMC10307832.

Assays:
Assay in all cases: relative viability (nuclei count vs DMSO), 5 days (fraction); higher = more cells survive
[1] = compound: COc1cc(Nc2c(C#N)cnc3cc(OCCCN4CCN(C)CC4)c(OC)cc23)c(Cl)cc1Cl [Bosutinib] + CC(=O)Nc1cccc(-n2c(=O)n(C3CC3)c(=O)c3c(Nc4ccc(I)cc4F)n(C)c(=O)c(C)c32)c1 [Trametinib] (partner 0.02 µM)
How it was run: (§1)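 A single step with final 0.05% Triton X-100, 1% formaldehyde and 1 ug/ml Hoechst fixed the cells and stained nuclei 5 days after treatment. Lung cancer cell lines in 1536-well plates had been treated by pin tool the day after seeding with one drug alone or a fixed anchor-drug dose plus five library-drug doses (not always all listed) in √10 steps, and nuclei were counted on 4× images. Relative viability is the ratio of nuclei in treated wells to nuclei in vehicle wells, taken as the median of duplicate plates.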

[2] = compound: COc1cc(Nc2c(C#N)cnc3cc(OCCCN4CCN(C)CC4)c(OC)cc23)c(Cl)cc1Cl [Bosutinib] + CC1(C)CCC(c2ccc(Cl)cc2)=C(CN2CCN(c3ccc(C(=O)NS(=O)(=O)c4ccc(N[C@H](CCN5CCOCC5)CSc5ccccc5)c(S(=O)(=O)C(F)(F)F)c4)cc3)CC2)C1 [Navitoclax] (partner 0.5 µM)
How it was run: as §1

[3] = compound: COc1cc(Nc2c(C#N)cnc3cc(OCCCN4CCN(C)CC4)c(OC)cc23)c(Cl)cc1Cl [Bosutinib] + COc1cccc2cc(-c3nc([C@H]4CC[C@H](C(=O)O)CC4)n4ncnc(N)c34)[nH]c12 [OSI-027] (partner 0.5 µM)
How it was run: as §1

[4] = compound: COc1cc(Nc2c(C#N)cnc3cc(OCCCN4CCN(C)CC4)c(OC)cc23)c(Cl)cc1Cl [Bosutinib] + Cc1cc(Nc2cc(N3CCN(C)CC3)nc(Sc3ccc(NC(=O)C4CC4)cc3)n2)n[nH]1 [Tozasertib] (partner 0.1 µM)
How it was run: as §1

[5] = compound: COc1cc(Nc2c(C#N)cnc3cc(OCCCN4CCN(C)CC4)c(OC)cc23)c(Cl)cc1Cl [Bosutinib] + O=C(c1cc(Cc2n[nH]c(=O)c3ccccc23)ccc1F)N1CCN(C(=O)C2CC2)CC1 [Olaparib] (partner 8 µM)
How it was run: as §1

Cell Line	relative viability ([1]; first compound 0.01 µM)	relative viability ([1]; first compound 0.03162 µM)	relative viability ([1]; first compound 0.1 µM)	relative viability ([1]; first compound 1 µM)	relative viability ([2]; first compound 0.01 µM)	relative viability ([2]; first compound 0.03162 µM)	relative viability ([2]; first compound 0.1 µM)	relative viability ([2]; first compound 1 µM)	relative viability ([3]; first compound 0.01 µM)	relative viability ([3]; first compound 0.03162 µM)	relative viability ([3]; first compound 0.1 µM)	relative viability ([3]; first compound 1 µM)	relative viability ([4]; first compound 0.01 µM)	relative viability ([4]; first compound 0.03162 µM)	relative viability ([4]; first compound 0.1 µM)	relative viability ([4]; first compound 1 µM)	relative viability ([5]; first compound 0.01 µM)	relative viability ([5]; first compound 0.03162 µM)	relative viability ([5]; first compound 0.1 µM)	relative viability ([5]; first compound 1 µM)
201T	0.745	0.696	0.682	0.708	1.2	1.2	1.2	1.14	0.874	0.712	0.725	0.633	0.92	0.913	0.951	0.713	0.829	0.884	0.888	0.76
A549					1.2	1.26	1.27	1.07									0.52	0.447	0.357	0.286
A-427	0.832	0.822	0.783	0.681	0.947	0.97	1.05	0.888	0.489	0.498	0.553	0.48	0.231	0.227	0.217	0.194	0.73	0.764	0.742	0.68
ABC-1									0.507	0.471	0.432	0.577	0.217	0.168	0.144	0.177	0.531	0.964	0.743	0.46
BEN	1.02	0.855	1.01	0.804	0.0464	0.0561	0.0932	0.0522	0.318	0.313	0.294	0.261	0.499	0.439	0.48	0.539	1.04	1.05	1.04	0.735
CAL-12T	0.28	0.366	0.334	0.234	1.23	1.16	1.09	1.12	0.735	0.637	0.803	0.565	0.32	0.316	0.322	0.318	0.704	0.665	0.64	0.766
COR-L23	0.706	0.548	0.568	0.541	1.17	1.06	0.959	1.06	0.754	0.732	0.75	0.778	0.195	0.236	0.194	0.198	0.341	0.353	0.348	0.309
COR-L 105	0.51	0.381	0.42	0.389	0.808	0.825	0.84	0.492	0.623	0.669	0.698	0.479	0.344	0.371	0.325	0.308	0.677	0.743	0.844	0.603
ChaGo-K-1	0.91	0.89	0.891	0.875	0.602	1.33	1.31	1.56	0.568	0.501	0.576	0.647	0.22	0.254	0.224	0.213	0.432	0.458	0.401	0.435
EKVX	0.306	0.334	0.364	0.228	0.882	0.929	0.914	0.807	0.79	0.764	0.654	0.55	0.373	0.379	0.355	0.236	0.925	0.86	0.876	0.628
EMC-BAC-2	0.848	0.887	0.857	0.773	1.2	1.1	1.15	1.15	0.388	0.383	0.385	0.37	0.287	0.291	0.311	0.282	0.48	0.525	0.51	0.621
EPLC-272H	0.297	0.281	0.281	0.281	1.05	1.09	1.15	1.35	0.262	0.34	0.312	0.342	0.307	0.339	0.347	0.351	0.722	0.909	0.626	0.515
H3255		0.578	0.63	0.422	0.669	0.574	0.485	0.218	0.558	0.653	0.642	0.412	0.696	0.645	0.719	0.326	0.568	0.56	0.598	0.421
HARA	0.943	0.745	0.633	0.57	1.16	1.1	1.12	1.19	0.497	0.512	0.503	0.344	0.119	0.149	0.104	0.125	0.896	0.825	0.761	0.515
HCC-15	0.396	0.457	0.383	0.328	0.707	0.715	0.741	0.689	0.736	0.622	0.648	0.734	0.474	0.418	0.361	0.328	0.652	0.699	0.695	0.661
HCC-44	1.03	1.04	1.09	1.05	1.03	0.926	0.969	0.849	0.525	0.673	0.594	0.571	1.07	1.18	1.09	0.685	0.981	0.923	0.978	1.04
HCC-78	0.84	0.712	0.768	0.725	0.798	0.737	0.752	0.661	0.361	0.362	0.353	0.358	0.406	0.327	0.439	0.384	0.722	0.937	0.888	0.687
HCC-366	0.319	0.226	0.326	0.215	1.08	1.05	0.997	0.49	0.981	0.898	0.821	0.405	0.161	0.142	0.104	0.0934	0.406	0.378	0.376	0.19

Cell Line	relative viability ([1]; first compound 0.01 µM)	relative viability ([1]; first compound 0.03162 µM)	relative viability ([1]; first compound 0.1 µM)	relative viability ([1]; first compound 1 µM)	relative viability ([2]; first compound 0.01 µM)	relative viability ([2]; first compound 0.03162 µM)	relative viability ([2]; first compound 0.1 µM)	relative viability ([2]; first compound 1 µM)	relative viability ([3]; first compound 0.01 µM)	relative viability ([3]; first compound 0.03162 µM)	relative viability ([3]; first compound 0.1 µM)	relative viability ([3]; first compound 1 µM)	relative viability ([4]; first compound 0.01 µM)	relative viability ([4]; first compound 0.03162 µM)	relative viability ([4]; first compound 0.1 µM)	relative viability ([4]; first compound 1 µM)	relative viability ([5]; first compound 0.01 µM)	relative viability ([5]; first compound 0.03162 µM)	relative viability ([5]; first compound 0.1 µM)	relative viability ([5]; first compound 1 µM)
HCC-827	0.55	0.6	0.594	0.18	1	0.986	1.04	0.933	0.784	0.828	0.872	0.574	0.406	0.442	0.436	0.166	0.609	0.817	0.626	0.217
HOP-62	0.377	0.425	0.401	0.354	0.901	0.982	1.04	1.09	0.801	0.848	0.942	0.875	0.394	0.411	0.35	0.381		0.395	0.451	0.435
IA-LM					0.779	0.816	0.842	0.764									0.964	0.927	0.858	0.77
LC-2-ad	0.953	0.898	0.892	0.859	0.476	0.54	0.52	0.468	0.878	0.917	0.806	0.847	0.469	0.401	0.506	0.482	0.719	0.672	0.678	0.732
LCLC-97TM1	0.201	0.209	0.192	0.179	0.541	0.464	0.595	0.483	0.545	0.609	0.548	0.56	0.461	0.267	0.244	0.362	0.41	0.402	0.372	0.351
LCLC-103H	0.747	0.685	0.672	0.656					0.458	0.438	0.417	0.496	0.486	0.497	0.48	0.484	0.734	0.774	0.741	0.782
LK-2	0.873	0.784	0.667	0.672	0.955	0.943	0.838	0.74	0.256	0.253	0.192	0.185	0.194	0.168	0.191	0.178	0.538	0.962	0.807	0.707
LOU-NH91	0.816	0.805	0.771	0.672	0.755	0.713	0.666	0.391	0.742	0.707	0.728	0.51	0.64	0.645	0.607	0.538	0.889	0.868	0.898	0.697
LU99A	0.53	0.623	0.645	0.517	0.769	0.878	0.782	1.06	0.313	0.332	0.32	0.343	0.275	0.276	0.291	0.311	0.234	0.291	0.284	0.245
NCI-H358	0.132	0.128	0.121	0.109					0.786	0.742	0.787	0.545	0.101	0.106	0.109	0.113	0.566	0.579	0.572	0.366
NCI-H522	0.723	0.711	0.689	0.723					0.734	0.641	0.682	0.69	0.564	0.504	0.604	0.485	0.616	0.645	0.735	0.619
NCI-H650	0.907	0.918	0.961	0.975					0.634	0.502	0.588	0.628	0.74	0.772	0.721	0.801	0.407	0.357	0.424	0.424
NCI-H661	0.616	0.554	0.565	0.439					0.682	0.804	0.744	0.56	0.34	0.362	0.385	0.425	0.696	0.736	0.743	0.649
NCI-H1563									0.794	0.831	0.761	0.717								
NCI-H1703					0.985	1.06	0.922	0.43									0.371	0.471	0.311	0.26
NCI-H1792	0.478	0.416	0.437	0.316	0.68	0.682	0.67	0.619	0.692	0.706	0.751	0.688					0.525	0.312	0.548	0.273
SW 900	0.809	0.674	0.784	0.61					0.51		0.591	0.455	0.521		0.586	0.507	0.824	0.769	0.766	0.538
